This note sets out measurements from ChEMBL document CHEMBL1133187, “Novel antiarthritic agents with 1,2-isothiazolidine-1,1-dioxide (gamma-sultam) skeleton: cytokine suppressive dual inhibitors of cyclooxygenase-2 and 5-lipoxygenase” (J Med Chem, 2000).

A word on the IC50: it is the midpoint of a concentration-inhibition curve. Broadly, the ED50 is the midpoint of the dose-response relation. High values mean a need for a large dose, low ones an effect at a small dose.

Assay [1] is filed under the species Homo sapiens. In words: Inhibitory effect on production of (COX-1) thromboxane B2 (TXB2) in human platelet cells. Format: functional, cell-based.
The species named for assay [2] is Rattus norvegicus. In words: Dose required for 30% inhibition of adjuvant-induced arthritis. Format: functional.
The subject of assay [3] is Rattus norvegicus. The assay is described as follows: Dose required for 30% inhibition of carrageenan-induced edema. Format: functional. In general terms: Carrageenan injected into the paw causes an acute inflammation.
Assay [4] is filed under the species Rattus norvegicus. In words: (§1) Inhibitory effect for increase in plasma prostaglandin E2 (PGE2) level after arachidonic acid (AA) injection into COX-1 non-lipopolysaccharide-treated rats. Format: functional, organism-based.
The species entered for assay [5] is Rattus norvegicus. In words: Inhibitory effect for increase in plasma prostaglandin E2 (PGE2) level after arachidonic acid (AA) injection into COX-2 lipopolysaccharide-treated rats. Format: functional, organism-based.
The species named for assay [6] is Rattus norvegicus. The assay is described as follows: Dose required for Ulcerogenic effect. Format: functional.
Assay [7] deals with Rattus norvegicus. In words: Percent inhibition of adjuvant-induced arthritis at 10 mg/kg po. Format: functional.
The subject of assay [8] is Rattus norvegicus. In words: Percent inhibition of carrageenan-induced foot-pad edema at 30 mg/kg po. Format: functional.
The species entered for assay [9] is Rattus norvegicus. In words: In vitro effect on production of calcium ionophore (A23187) -induced Leukotriene B4 (LTB4) in rat peritoneal cells. Format: functional, cell-based.
The nature of assay [10]: (§2) Inhibitory effect on production of cyclooxygenase-2 (COX-2) prostaglandin E2 (PGE2) in human IL1-beta stimulated synovial cells. Format: functional.
A further assay deals with THP-1. In words: In vitro effect on production of lipopolysaccharide (LPS) -induced IL1-beta in human THP-1 cells. Format: functional, cell-based.
The species named for assay [11] is Rattus norvegicus.
Description: Lengths of bleeding ulcer of drug-administered group
Another assay concerns the target T1, Cyclooxygenase (Rattus norvegicus, UniProt P35355+Q63921).
T1 sequence (P35355 whole entry): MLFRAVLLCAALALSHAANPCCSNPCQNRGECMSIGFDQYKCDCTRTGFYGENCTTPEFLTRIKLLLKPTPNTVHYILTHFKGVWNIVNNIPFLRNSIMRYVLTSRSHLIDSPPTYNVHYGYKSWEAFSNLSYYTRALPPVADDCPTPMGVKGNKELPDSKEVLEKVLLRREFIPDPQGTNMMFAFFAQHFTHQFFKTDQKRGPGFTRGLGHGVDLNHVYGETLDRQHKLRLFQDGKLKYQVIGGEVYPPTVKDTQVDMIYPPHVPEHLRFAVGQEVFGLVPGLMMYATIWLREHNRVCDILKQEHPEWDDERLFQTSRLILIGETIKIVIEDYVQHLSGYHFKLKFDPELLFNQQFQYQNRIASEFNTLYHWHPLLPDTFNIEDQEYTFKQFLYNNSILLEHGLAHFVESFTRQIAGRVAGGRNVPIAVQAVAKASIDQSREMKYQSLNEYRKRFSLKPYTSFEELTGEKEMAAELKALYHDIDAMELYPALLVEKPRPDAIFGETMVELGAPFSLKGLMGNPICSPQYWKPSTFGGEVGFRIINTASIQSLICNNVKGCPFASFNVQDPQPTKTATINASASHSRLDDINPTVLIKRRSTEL
T1 sequence (Q63921 whole entry): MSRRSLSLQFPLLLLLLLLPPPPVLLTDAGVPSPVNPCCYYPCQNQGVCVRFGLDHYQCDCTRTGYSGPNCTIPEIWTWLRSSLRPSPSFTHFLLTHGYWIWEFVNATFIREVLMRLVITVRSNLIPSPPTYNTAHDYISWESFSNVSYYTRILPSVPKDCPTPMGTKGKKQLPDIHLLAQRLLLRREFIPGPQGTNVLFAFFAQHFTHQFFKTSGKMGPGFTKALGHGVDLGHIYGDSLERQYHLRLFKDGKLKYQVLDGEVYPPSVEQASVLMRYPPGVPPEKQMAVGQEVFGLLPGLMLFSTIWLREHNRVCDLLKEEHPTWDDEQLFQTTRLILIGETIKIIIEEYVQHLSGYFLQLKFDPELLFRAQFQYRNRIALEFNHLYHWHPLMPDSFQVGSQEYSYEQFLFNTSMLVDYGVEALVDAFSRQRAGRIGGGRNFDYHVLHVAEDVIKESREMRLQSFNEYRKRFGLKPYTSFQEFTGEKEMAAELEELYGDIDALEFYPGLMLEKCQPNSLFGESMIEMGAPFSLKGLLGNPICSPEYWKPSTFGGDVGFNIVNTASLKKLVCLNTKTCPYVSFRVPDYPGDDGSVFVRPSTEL

Assay [12] has as its system Rattus norvegicus. In words: Percent inhibition of adjuvant-induced arthritis at 10 mg/kg poP<0.01. Format: functional. As to conditions: read-out: Inhibition.
For assay [13], the species on record is Homo sapiens. In words: Inhibitory effect on production of cyclooxygenase-1 (COX-1) thromboxane B2 (TXB2) in human platelet cells.
Assay [14] in a line: as §2.
The species named for assay [15] is Rattus norvegicus. The assay is described as follows: Inhibitory effect for increase in plasma prostaglandin E2 (PGE2) level after arachidonic acid (AA) injection intoCOX-1 non-lipopolysaccharide-treated rats. Format: functional.
The species entered for assay [16] is Rattus norvegicus. Described as §1. Format: functional.

Description for Cyclooxygenase: In vitro inhibitory effect on production of prostaglandin E2 (PGE2) in rat synovial cells.

For `CCN1CC/C(=C\c2cc(C(C)(C)C)c(O)c(C(C)(C)C)c2)S1(=O)=O`, the IC50 in the assay listed under Homo sapiens [1] was found to be 27 µM; in the assay listed under Rattus norvegicus [9] it was 2.5 µM; in assay [10] it was 0.011 µM; in the assay with THP-1, 10 µM; on Cyclooxygenase it was 0.0095 µM. Moreover, the ED30 in the assay listed under Rattus norvegicus [2] turned out to be 0.76 mg/kg; with Rattus norvegicus [3] it was 3.5 mg/kg. Also, the values for the ED50 in the assay listed under Rattus norvegicus [4] and in the assay filed under Rattus norvegicus [5] were above 30 mg/kg and 3.19 mg/kg, respectively. This compound also yielded a Dose in the assay filed under Rattus norvegicus [6] of 400 mg/kg. Besides, the inhibition in vivo at 10 mg/kg with Rattus norvegicus [7] was 37.8%. This compound also yielded an inhibition in vivo at 30 mg/kg in the assay with Rattus norvegicus [8] of 49.4%. For the same compound, in the assay filed under Rattus norvegicus [11], the Ulcer index came to 1.6 mm.
Regarding `CN1CC/C(=C\c2cc(C(C)(C)C)c(O)c(C(C)(C)C)c2)S1(=O)=O`, the ED30 in the assay filed under Rattus norvegicus [2] turned out to be 0.64 mg/kg; in the assay with Rattus norvegicus [3], 5.4 mg/kg. This compound registered a Dose in the assay listed under Rattus norvegicus [6] of 400 mg/kg. In the assay with Rattus norvegicus [8], this compound had an inhibition in vivo at 30 mg/kg of 61.4%. The IC50 came out at 2.8 µM in the assay listed under Rattus norvegicus [9], 28 µM in the assay on THP-1 and 0.0091 µM against Cyclooxygenase. In addition, the inhibition in vivo at 10 mg/kg in the assay with Rattus norvegicus [12] turned out to be 39.4%. Also, the Ulcer index in the assay listed under Rattus norvegicus [11] came to 26.8 mm.
In the case of `Cc1ccc(-c2cc(C(F)(F)F)nn2-c2ccc(S(N)(=O)=O)cc2)cc1` [CELECOXIB], the IC50 in the assay filed under Homo sapiens [13] stood at 19 µM; in [14], 0.0079 µM.
Consider `COc1ccc2c(c1)c(CC(=O)O)c(C)n2C(=O)c1ccc(Cl)cc1` [INDOMETHACIN], for which the ED50 in the assay filed under Rattus norvegicus [15] and in the assay filed under Rattus norvegicus [16] was 0.37 mg/kg each time. The ED30 in the assay listed under Rattus norvegicus [2] was 0.06 mg/kg; in the assay on Rattus norvegicus [3] it was 0.8 mg/kg. The same compound displayed a Dose in the assay filed under Rattus norvegicus [6] of 30 mg/kg. The IC50 in the assay filed under Rattus norvegicus [9] and in the assay with THP-1 was above 100 µM throughout.
